Test results: US12503452B2 (Curza Global, LLC, priority 2019, dated 2025)
Structures can show the parent of a compound that is named as a salt. Where two headings read alike, the source gives them in different places.

What was measured:
E. coli (Ec) = experiment: Broth microdilution minimum inhibitory concentration (MIC); type: cell-based; details: Escherichia coli, read-out: E. coli + bicarb MIC
Outline: (§1)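 CLSI broth microdilution (M07-A9, slightly modified) in CAMHB, optionally with 6.25 or 25 mM sodium bicarbonate or 0–50% heat-inactivated human serum. Two-fold serial dilutions (8 concentrations, triplicate) were inoculated at 5×10^4 CFU/well from 0.5 McFarland cultures grown at 35±2 °C.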

A. baumannii (Ab) = experiment: as above; type: cell-based; details: for MIC: Acinetobacter baumannii, read-out: Ab + bicarb MIC
Outline: as §1

S. aureus (Sa) = experiment: as above; type: cell-based; details: Staphylococcus aureus, read-out: Sa + bicarb MIC
Outline: as §1

P. aeruginosa (Pa) = experiment: as above; type: cell-based; details: Pseudomonas aeruginosa, read-out: Pa MIC + bicarb
Outline: as §1

E. faecalis (Ef) = experiment: as above; type: cell-based; details: Enterococcus faecalis, read-out: Ef + bicarb MIC
Outline: as §1

[1] = target: Rabbit Reticulocyte Lysate (eukaryotic protein synthesis); experiment: Rabbit reticulocyte lysate luciferase assay (inhibition of eukaryotic protein synthesis); type: biochemical; details: read-out: Rabbit reticulocyte IC50 (μM/% inhib.)
Outline: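 Nuclease-treated rabbit reticulocyte lysate translating luciferase control RNA, with complete amino acids, was incubated at 30° C. for 90 minutes with 2-fold serial compound dilutions. Luminescence was measured after adding luciferase reagent. % inhibition was relative to water controls, with no-RNA wells as background.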

[2] = system: E. coli S30 extract (bacterial protein synthesis); experiment: E. coli S30 extract coupled transcription-translation luciferase assay (inhibition of bacterial protein synthesis); type: biochemical; details: read-out: S30 IC50 (μM/% inhib.)
Outline: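 Cell-free coupled transcription-translation in E. coli S30 circular-DNA extract, with pBESTluc plasmid as template and complete amino acid mix. Eight 2-fold compound dilutions were incubated with the extract 1 h at 37 °C, chilled, then luciferase luminescence was read. % inhibition was taken relative to no-inhibitor wells; no-DNA wells gave background.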

[3] = class by IC50 or % inhibition @ 1 μM
[4] = E. coli, growth medium with sodium bicarbonate
[5] = A. baumannii, growth medium with sodium bicarbonate
[6] = S. aureus, growth medium with sodium bicarbonate
[7] = P. aeruginosa, growth medium with sodium bicarbonate
[8] = E. faecalis, growth medium with sodium bicarbonate

SMILES | MIC (E. coli (Ec)) [µg/mL] | MIC (A. baumannii (Ab)) [µg/mL] | MIC (S. aureus (Sa)) [µg/mL] | MIC (P. aeruginosa (Pa)) [µg/mL] | MIC (E. faecalis (Ef)) [µg/mL] | IC50 [1, 3] [µM] | IC50 [2, 3] [µM] | MIC (E. coli (Ec); [4]) [µg/mL] | MIC (A. baumannii (Ab); [5]) [µg/mL] | MIC (S. aureus (Sa); [6]) [µg/mL] | MIC (P. aeruginosa (Pa); [7]) [µg/mL] | MIC (E. faecalis (Ef); [8]) [µg/mL] | IC50 ([1]; % inhibition @ 1 μM) [µM] | IC50 ([2]; % inhibition @ 1 μM) [µM] | Ab + bicarb MIC (A. baumannii (Ab); [5])
CC(C)(N)C(=O)N1CCN(C(=O)Nc2ccn(-c3ccc(CN4CCCC(N)CC4)c(F)c3)c(=O)n2)CC1 (centres unmarked) [Compound 334, hydrochloride salt] | < 8 | > 32 | 8 to 32 | > 32 | > 32 | > 1 | < 0.5 |  |  |  |  |  |  |  | 
CC1C[C@@H](NCc2ccc(-n3ccc(NC(=O)N4CCN(C(=O)C(C)(C)N)CC4)nc3=O)cc2)CC[C@@H]1N (some centres unmarked) [Compound 335, hydrochloride salt] | < 8 | > 32 | < 8 | > 32 | > 32 | > 1 | < 0.5 |  |  |  |  |  |  |  | 
CC1C[C@@H](N(C)Cc2ccc(-n3ccc(NC(=O)N4CCN(C(=O)C(C)(C)N)CC4)nc3=O)cc2)CC[C@@H]1N (some centres unmarked) [Compound 337] |  |  |  |  |  | > 1 | < 0.5 | < 8 | > 32 | < 8 | > 32 | 8 to 32 |  |  | 
CCN(Cc1ccc(-n2ccc(NC(=O)N3CCN(C(=O)C(C)(C)N)CC3)nc2=O)cc1)[C@H]1CC[C@H](N)C(C)C1 (some centres unmarked) [Compound 338, hydrochloride salt] | < 8 | > 32 | < 8 | > 32 | 8 to 32 | > 1 | < 0.5 |  |  |  |  |  |  |  | 
CO[C@H]1C[C@@H](NCc2ccc(-n3ccc(NC(=O)N4CCN(C(=O)C(C)(C)N)CC4)nc3=O)cc2)CC[C@@H]1N [Compound 339, hydrochloride salt] | < 8 | > 32 | 8 to 32 | > 32 | > 32 | > 1 | < 0.5 |  |  |  |  |  |  |  | 
CO[C@H]1C[C@@H](N(C)Cc2ccc(-n3ccc(NC(=O)N4CCN(C(=O)C(C)(C)N)CC4)nc3=O)cc2)CC[C@@H]1N [Compound 340, hydrochloride salt] | < 8 | > 32 | 8 to 32 | > 32 | > 32 | > 1 | 0.5 to 1 |  |  |  |  |  |  |  | 
CCN(Cc1ccc(-n2ccc(NC(=O)N3CCN(C(=O)C(C)(C)N)CC3)nc2=O)cc1)[C@H]1CC[C@H](N)[C@@H](OC)C1 [Compound 341, hydrochloride salt] | 8 to 32 | > 32 | 8 to 32 | > 32 | > 32 | > 1 | 0.5 to 1 |  |  |  |  |  |  |  | 
CC(C)(N)C(=O)N1CCN(C(=O)Nc2ccn(-c3ccc(CNC4CC(N)CC(O)C4)cc3)c(=O)n2)CC1 (centres unmarked) [Compound 342, hydrochloride salt] | 8 to 32 | > 32 | > 32 | > 32 | > 32 | > 1 | < 0.5 |  |  |  |  |  |  |  | 
CN(Cc1ccc(-n2ccc(NC(=O)N3CCN(C(=O)C(C)(C)N)CC3)nc2=O)cc1)C1CC(N)CC(O)C1 (centres unmarked) [Compound 343, hydrochloride salt] | 8 to 32 | > 32 | > 32 | > 32 | > 32 | > 1 | 0.5 to 1 |  |  |  |  |  |  |  | 
CC(C)(N)C(=O)N1CCN(C(=O)Nc2ccn(-c3ccc(CN4CC[C@H](N)[C@@H](F)C4)cc3)c(=O)n2)CC1 [Compound 344, hydrochloride salt] | > 32 | > 32 | > 32 | > 32 | > 32 | > 1 | > 1 |  |  |  |  |  |  |  | 
CC(C)(N)C(=O)N1CCN(C(=O)Nc2ccn(-c3ccc(CCNCC4CNC4)cc3)c(=O)n2)CC1 [Compound 345, hydrochloride salt] | > 32 | > 32 | > 32 | > 32 | > 32 | > 1 | 0.5 to 1 |  |  |  |  |  |  |  | 
CC(Cc1ccc(-n2ccc(NC(=O)N3CCN(C(=O)C(C)(C)N)CC3)nc2=O)cc1)N1CC(CCN)C1 (centres unmarked) [Compound 347, hydrochloride salt] | < 8 | > 32 | 8 to 32 | > 32 | > 32 | > 1 | 0.5 to 1 |  |  |  |  |  |  |  | 
CC(C)(N)C(=O)N1CCN(C(=O)Nc2ccn(-c3ccc(CN(C4CC4)[C@H]4CC[C@H](N)CC4)cc3)c(=O)n2)CC1 [Compound 348, hydrochloride salt] | < 8 | > 32 | 8 to 32 | > 32 | > 32 |  |  |  |  |  |  |  | > 1 | < 0.5 | 
CC(C)(N)C(=O)N1CCN(C(=O)Nc2ccn(-c3ccc(C4CO[C@@H](CN)CN4)cc3)c(=O)n2)CC1 (some centres unmarked) [Compound 352, hydrochloride salt] | 8 to 32 | > 32 | > 32 | > 32 | > 32 |  |  |  |  |  |  |  | > 1 | < 0.5 | 
CC(C)(N)C(=O)N1CCN(C(=O)Nc2ccn(-c3cc(F)c(CN[C@H]4CC[C@H](N)CC4)c(F)c3)c(=O)n2)CC1 [Compound 353, hydrochloride salt] | < 8 | > 32 | 8 to 32 | > 32 | > 32 |  |  |  |  |  |  |  | > 1 | < 0.5 | 
CCN(Cc1ccc(-n2ccc(NC(=O)N3CCN(C(=O)C(C)(C)N)CC3)nc2=O)cc1F)[C@H]1CC[C@H](N)CC1 [Compound 355] | < 8 | > 32 | < 8 | > 32 | < 8 |  |  |  |  |  |  |  | > 1 | < 0.5 | 
CC(C)N(Cc1ccc(-n2ccc(NC(=O)N3CCN(C(=O)C(C)(C)N)CC3)nc2=O)cc1)C1CCC(N)CC1 (centres unmarked) [Compound 356] |  |  |  |  |  |  |  | > 32 | > 32 | > 32 | > 32 | > 32 | > 1 | > 1 | 
CCN(Cc1ccc(-n2ccc(NC(=O)N3CCN(C(=O)[C@H](C)N)CC3)nc2=O)cc1)C1CCC(N)CC1 (some centres unmarked) [Compound 357] |  |  |  |  |  |  |  | < 8 | > 32 | < 8 | > 32 | 8 to 32 | > 1 | < 0.5 | 
CCN(Cc1ccc(-n2ccc(NC(=O)N3CCN(C(=O)[C@@H](C)N)CC3)nc2=O)cc1)C1CCC(N)CC1 (some centres unmarked) [Compound 358] |  |  |  |  |  |  |  | < 8 | > 32 | < 8 | > 32 | 8 to 32 | > 1 | 0.5 to 1 | 
CCN(Cc1ccc(-n2ccc(NC(=O)N3CCN(C(=O)[C@@H](C)NC(=O)[C@@H](C)N)CC3)nc2=O)cc1)C1CCC(N)CC1 (some centres unmarked) [Compound 359] |  |  |  |  |  |  |  | > 32 | > 32 | 8 to 32 | > 32 | > 32 | > 1 | > 1 | 
CC(C)(N)C(=O)N1CCN(C(=O)Nc2ccn(-c3ccc(CN4CCCC(N)CC4)cc3)c(=O)n2)CC1 (centres unmarked) [Compound 365, hydrochloride salt] | < 8 | > 32 | < 8 | > 32 | < 8 |  |  |  |  |  |  |  | > 1 | < 0.5 | 
CC(C)(N)C(=O)N1CCN(C(=O)Nc2ccn(-c3ccc(CN4CCC(C5CNC5)CC4)cc3)c(=O)n2)CC1 [Compound 370, hydrochloride salt] | < 8 | > 32 | < 8 | > 32 | < 8 |  |  |  |  |  |  |  | > 1 | < 0.5 | 
CC(C)(N)C(=O)N1CCN(C(=O)Nc2ccn(-c3ccc(CCN4CC(C5CCNCC5)C4)cc3)c(=O)n2)CC1 [Compound 372] |  |  |  |  |  |  |  | < 8 | > 32 | < 8 | > 32 | > 32 | > 1 | > 1 | 
CC(C)(N)C(=O)N1CCN(C(=O)Nc2ccn(-c3ccc(CC4(N5CCC(N)CC5)CC4)cc3)c(=O)n2)CC1 [Compound 373] |  |  |  |  |  |  |  | < 8 | > 32 | < 8 | > 32 | 8 to 32 | > 1 | > 1 | 
CC(C)(N)C(=O)N1CCN(C(=O)Nc2ccn(-c3ccc(CNCC4CNC4)cc3)c(=O)n2)CC1 [Compound 374] |  |  |  |  |  |  |  | < 8 |  | 8 to 32 | > 32 | 8 to 32 | > 1 | < 0.5 | + (An MIC value (μg/mL) that is 32 μg/mL or greater)
CC(C)(N)C(=O)N1CCN(C(=O)Nc2ccn(-c3ccc(CN4CC(C5CCNCC5)C4)cc3)c(=O)n2)CC1 [Compound 377] |  |  |  |  |  |  |  | < 8 | > 32 | < 8 | > 32 | > 32 | > 1 | < 0.5 | 
